Laboratory results: PMC10121968, “Fosgonimeton, a Novel Positive Modulator of the HGF/MET System, Promotes Neurotrophic and Procognitive Effects in Models of Dementia” (Neurotherapeutics, 2022)
Non-standard residues stand in square brackets, D forms with d. Residues, ends and D or L forms follow the SMILES beside them. *: point of attachment. pY = N[C@@H](Cc1ccc(OP(=O)(O)O)cc1)C(=O)O; Hexanoyl = CCCCCC(=O)*; Ahx = NCCCCCC(=O)O

Legend:
[1] = test system: LPS-induced neuroinflammatory mouse model; assay: LPS-induced cognitive impairment, T-maze spontaneous alternation; assay type: in vivo; settings: 14 days
Description: All animal manipulations were conducted in accordance with the European Directive 2010/63/UE published in the French decree 2013–118 of February 1, 2013, and approved by an independent government-accredited ethics committee (CEEA 35, NEUROFIT, France). Animals for the study consisted of 90 four- to five-week-old CD-1 mice (Janvier, Le Genest St Isle, France). Mice were group-housed and maintained in a room with controlled temperature (21–22 °C) and reversed 12/12 light/dark cycle. The animals had access to food and water ad libitum.
Mice were sorted into the following experimental groups: saline + vehicle (control), LPS + vehicle (LPS), LPS + 0.1 mg/kg memantine, and LPS + fosgonimeton at 0.125, 0.25, 0.5, 1, or 1.25 mg/kg (LPS + fosgo). On day 0 of the study, all groups received either a single intraperitoneal injection of saline or LPS (0.25 mg/kg). During days 1–14, animals received memantine or fosgonimeton treatment once daily. On day 14, 60 min after the last dosing with test compounds or vehicle, mice were assessed for performance on the T-maze spontaneous alternation task.
The T-maze apparatus was made of gray Plexiglas with a main stem (55 cm × 10 cm × 20 cm) and 2 arms (30 cm × 10 cm × 20 cm) positioned at a 90° angle relative to the main stem. A start box (15 cm × 10 cm) was separated from the main stem by a guillotine door. Horizontal doors were also provided to close specific arms during the “forced-choice” alternation task.
The experimental protocol consisted of a single session, which started with 1 forced-choice trial, followed by 14 “free-choice” trials. In the forced-choice trial, the animal was confined for 5 s in the start arm and was then released while either the left or the right goal arm was blocked by a horizontal door. Animals were allowed to explore the maze, eventually entering the open goal arm and afterward returning to the start position. […] The animal was considered to have entered an arm if it placed all 4 paws in the arm. The session was terminated and the animal was removed from the maze after 14 free-choice trials were performed or 10 min elapsed, whichever occurred first. The apparatus was cleaned between each animal run using 70% ethanol. During the trials, animal handling and the visibility of the operator were controlled to minimize interference during testing.
The percentage of alternations over the 14 free-choice trials was determined for each mouse and was used as an index of working memory performance. This percentage was defined as entry into a different goal arm of the T maze over successive trials (e.g., left–right–left–right) and was calculated using the formula: %Alternations=Number of Alternations/14×100
Additionally, percentage of recovery was calculated by normalizing the control group to 100% and the LPS group to 0% and calculating the respective relative response for each individual animal, as follows: %Recovery=(Individual%alternation-meanLPS%alternation)/(Meancontrol%alternation-meanLPS%alternation)
Data were assessed for normality (Shapiro–Wilk) and homoscedasticity (Brown-Forsythe). One-way ANOVA was performed on the data for spontaneous alternations. Dunnett multiple comparison test was used for post hoc pairwise comparisons with the LPS group. The Kruskal–Wallis test was used for percentage of recovery with Dunn’s multiple comparison post hoc test. A value of p < 0.05 was considered to represent a statistically significant difference.

[2] = test system: ERK (Thr202/Tyr204); assay: Phospho-ERK HTRF assay in HEK293 cells; assay type: cell-based, human; settings: HEK293, HGF 10 ng/mL, vs no HGF treatment
Text: To determine phosphoactivation status of the intracellular signaling molecules ERK (Thr202/Tyr204) or AKT (Ser473), we used homogenous time-resolved fluorescence (HTRF) kits to assess phosphorylation status based on the energy transfer between donor and acceptor phospho-ERK (pERK) or phospho-AKT (pAKT) antibodies. HTRF kit processing for pERK (Phospho-ERK [Thr202/Tyr204] cellular Advanced kit, #64AERPEG, Cisbio, Codolet, France) and pAKT (Phospho-AKT [Ser473] cellular kit, #64AKSPEG, Cisbio, Codolet, France) were carried out per manufacturer instructions. In brief, HEK293 cells were grown at 37 °C, 5% CO2 in DMEM + 10% FBS until approximately 80% confluent. Cells were seeded in polystyrene-treated 96-well cell culture plates at approximately 50,000 cells/well and cultured overnight in 50 µL serum-free growth media. […] Fluorescence emission at 2 different wavelengths (665 nm and 620 nm) were measured on an Envision plate reader (PerkinElmer, Waltham, Massachusetts), and the HTRF ratio of the acceptor and donor emission signals for each well was calculated as follows: HTRF ratio = (665 nm/620 nm) × 10,000. […] Data were assessed for normality (Shapiro–Wilk) and homoscedasticity (Brown-Forsythe). Statistical significance was determined by one-way analysis of variance (ANOVA) with Tukey’s multiple comparison post-test. […]

[3] = test system: MDCK cells; assay: MDCK cell scatter behavior assay; assay type: cell-based, canine; settings: HGF 40 ng/mL, 24 h
Description: Madin-Darby canine kidney (MDCK, ATCC CCL-34) cells were grown at 37 °C, 5% CO2 in Eagle’s Minimum Essential Medium (EMEM) + 10% FBS in T-75 flasks until 80% confluent. Cells were then plated at 1400 cells/well in black-walled, clear-bottom 96-well plates and grown at 37 °C under 5% CO2 for 24 h. Growth media were replaced by serum-free media for 2 h before treatment. Treatments containing HGF and fosgo-AM were made in serum-free media and applied in quintuplicates for 24 h at 37 °C under 5% CO2. Cells were then fixed in chilled 100% EtOH at 4 °C for 20 min and then stained with wheat germ agglutinin conjugated to CF488 (WGA488, Biotium, 29,022–1, Fremont, California) at […] in phosphate-buffered saline (PBS) for 30 min at RT to visualize whole-cell surfaces. Cultures were then imaged with an iCys instrument (iCyte, Thor Labs, Newton, New Jersey) and analyzed with the ImageJ (National Institutes of Health) particle count feature. Scattering behavior was quantified by normalizing particle counts against total stained area. […] Data were assessed for normality (Shapiro–Wilk) and homoscedasticity (Brown-Forsythe). The statistical difference from HGF alone was determined by one-way ANOVA with Dunnett’s multiple comparison post-test with an alpha value of 0.05 (Prism, GraphPad).

[4] = test system: primary rat hippocampal neurons; assay: Neurite outgrowth assay (beta-III tubulin staining); assay type: cell-based; settings: HGF alone 5 ng/mL, 4 days, vs vehicle
Description: On day 0, rat hippocampal neurons from newborn pups were isolated and cultured in brain neuronal culture medium (neurobasal medium supplemented with 5% FBS, 2% B-27 supplement, and 0.003% gentamycin) at 37 °C under 5% CO2. At 1 day in vitro (DIV1), cells were transferred to a poly-D-lysine–coated 24-well plate at approximately 10,000 cells/well. Cells were then grown in […] of serum-free medium and treated with the following: 0.1% dimethyl sulfoxide (DMSO; vehicle), 10 nM dihydrotestosterone (positive control), 10 nM fosgo-AM, 1 nM fosgo-AM, 5 ng/ml HGF, or 5 ng/ml HGF + 1 nM fosgo-AM. All treatments contained a final concentration of 0.1% DMSO. For the neurite outgrowth assay, treatment media were refreshed on DIV3, and cells were processed for analysis on DIV4. For the synaptogenesis assay, treatment media were refreshed on DIV3 and DIV6, and cells were processed for analysis on DIV8. Processing for both the neurite outgrowth and the synaptogenesis assays was performed as follows: media were removed, and cells were fixed with 100% methanol for 20 min at RT before methanol was aspirated and each well was washed twice with Dulbecco’s phosphate-buffered saline (DPBS). Cells were permeabilized using 0.02% […] (ThermoFisher, Waltham, Massachusetts) in DPBS for 2 min at RT without shaking, and plates were blocked with 5% bovine serum albumin (BSA) in DPBS for 1 h at RT. Plates were then incubated overnight at 4 °C with gentle shaking with use of beta-III tubulin antibody (ab201740; Abcam, Boston, Massachusetts) to assess neurite outgrowth or with use of 1:500 rabbit anti–synaptobrevin-II antibody (Synaptic Systems, cat# 104 202, Göttingen, Germany) to assess synaptogenesis. After overnight incubation, plates were washed 3 times with DPBS and incubated for 1 h at RT with use of anti–rabbit immunoglobulin G–secondary antibody conjugated to Alexa Fluor 488 (Life Technologies, Carlsbad, California, 1:500). After 5 DPBS washes, coverslips were mounted on slides using fluorescent mounting medium (Golden Bridge International Labs, Bothell, Washington, cat# E19-s). Imaging was performed using the BX43 Olympus microscope driven by the standard “CellSens” software by Olympus. […] Ten images of single cells from a total of 2 assays were analyzed using NeuroJ plug-in for ImageJ to assess neurite outgrowth, as neurite length and the number of branches per neuron were counted for each cell. For the synaptogenesis assay, synaptic count (number of synapses) and synaptic strength (relative abundance of presynaptic vesicles per synapse as measured by synaptobrevin-II fluorescence intensity) were quantified for each cell. Data were assessed for normality (Shapiro–Wilk) and homoscedasticity (Brown-Forsythe). […]

[5] = Fosgonimeton solubility (filtration/HPLC in PBS); assay type: physicochemical; settings: osmolarity-corrected PBS
Description: Fosgonimeton solubility studies were contracted to GVK Biosciences, Hyderabad, India. Stocks of fosgonimeton were prepared in duplicate at several concentrations in osmolarity-corrected PBS and were vortexed to dissolve into solution. The solutions were filtered through a 0.45-µm filter followed by a 0.22-µm filter to remove insoluble particulates. Pre- and postfiltration aliquots were collected, and their concentration was determined via high-performance liquid chromatography.

[6] = Plasma PK in rats after SC injection; assay type: in vivo, rat; settings: SC
Description: Four male rats were treated with 10 mg/kg fosgo-AM in DMSO via SC injection. Blood was serially collected at 0.08, 0.25, 0.5, 1, 2, and 4 h after dosing. Plasma was obtained by centrifugation with 2% disodium ethylenediaminetetraacetic acid (EDTA) as an anticoagulant. Plasma samples were precipitated with acetonitrile containing internal standard, and the concentration of fosgo-AM was determined by LC/MS/MS.
This study was conducted as described in the “Fosgo-AM PK in Rats” section with the following changes: animals were given 12 mg/kg fosgonimeton in saline with 0.1% glycine via SC injection, and a dose-linear correction was applied to normalize the dose to 10 mg/kg for comparison with the fosgo-AM study. Sample concentrations of both fosgonimeton and fosgo-AM were determined.

[7] = Fosgonimeton PK in mice; assay type: in vivo, mouse; settings: 0.75 mg/kg SC, first tested time point
Description: Three male BALBc mice were treated with 0.75 mg/kg fosgonimeton in saline with 0.1% glycine via SC injection. Blood was serially collected at 0.25, 0.5, 1, 2, and 4 h after dosing. Plasma was obtained by centrifugation with 2% disodium EDTA as an anticoagulant. Plasma samples were precipitated with acetonitrile containing internal standard, and the concentration of fosgonimeton and fosgo-AM was determined by LC/MS/MS.

[8] = Fosgonimeton CNS distribution in rats; assay type: in vivo, rat; settings: 12 mg/kg fosgonimeton SC, all brain regions
Description: Three male Sprague Dawley rats per time point were given 12 mg/kg fosgonimeton via SC injection. At 0.16, 0.5, and 1 h after dosing, animals were humanely killed and perfused with chilled saline. Brains were collected and dissected into the following brain regions: whole brain, striatum, olfactory bulb, hippocampus, cerebellum, cerebral cortex, and brainstem. Brain regions were homogenized and the exposures of fosgonimeton and fosgo-AM were determined by LC/MS/MS.

## CC12CC3CC(C)(C1)CC(N)(C3)C2 [memantine, reference compound]
[1]; 0.1 mg/kg I.P. once daily
  percentage of spontaneous alternations vs LPS group: significantly prevented LPS-induced cognitive deficits
[1]; positive control, 0.1 mg/kg I.P. once daily
  percentage of recovery (spontaneous alternations): 76.40%

## HGF: Recombinant HGF protein (R&D Systems), ligand of the MET receptor
[2]
  pERK levels: significantly increased pERK versus no HGF treatment
[3]
  cell scattering behavior: significantly increased cell scattering behavior
[4]
  neurite length per cell: no significant differences compared with vehicle

## CCCCCC(=O)N[C@@H](Cc1ccc(OP(=O)(O)O)cc1)C(=O)N[C@H](C(=O)NCCCCCC(N)=O)[C@@H](C)CC [fosgonimeton] (Hexanoyl-[pY]-Ile-[Ahx]-NH2)
[5]
  solubility in aqueous solutions: greater than 70 mg/mL
[6]
  fold higher fosgo-AM Cmax vs equivalent direct dose of fosgo-AM: ~4 fold
  systemic exposure of fosgo-AM vs equivalent direct dose of fosgo-AM: higher systemic exposure
[6]; first tested time point
  time of appearance of active compound fosgo-AM after fosgonimeton: ≤ 5 min
[7]
  time of appearance of active compound fosgo-AM after fosgonimeton: ≤ 15 min
[8]
  detection in brain regions: undetectable
[1]; 0.25 mg/kg SC once daily
  percentage of recovery (spontaneous alternations): 61.76%
[1]; 0.5 mg/kg SC once daily
  percentage of recovery (spontaneous alternations): 79.40%
[1]; 1 mg/kg SC once daily
  percentage of recovery (spontaneous alternations): 64.70%
[1]; 1.25 mg/kg SC once daily
  percentage of recovery (spontaneous alternations): 64.70%
[1]; 0.25, 0.5, 1 and 1.25 mg/kg SC once daily
  percentage of spontaneous alternations vs LPS group: significantly ameliorated these deficits
